According to patent US7232800B2, “Derivatives of magainin and methods of production thereof” (priority 2001, dated 2007):
Where two headings read alike, the source gives them in different places. Where no end group is shown, it is not given here.

How the values were obtained:
[1] = tested on: erythrocytes (blood derived from SD rat); experiment: Hemolysis test; type: cell-based
Experimental: 3 ml of 0.9% sodium chloride solution was added into three tubes separately, followed by addition of 100 μl blood derived from SD rat (provided by Shanghai Laboratory Animal Center, Chinese Academic Sciences) respectively.
As a negative control, the naturally occurring Magainin peptide (obtained from Sigma) was dissolved in sterile water, and the Magainin peptide solution with a concentration of 1 mg/ml was prepared. 300 μl, 1.5 ml and 3 ml of such solution were added into three tubes respectively. After incubation at room temperature for 30 minutes, centrifugation was conducted at 3000 rpm, and supernates in three tubes was taken to determine the optical density at 590 nm with a spectrophotometer.
In the testing group, Hemolysis effect of the Magainin (Leu21, Ser23, Arg24) was examined. Magainin (Leu21, Ser23, Arg24) peptide was dissolved in sterile water to prepare the solution with a concentration of 1 mg/ml, 300 μl, 1.5 ml and 3 m of the solution were added into three tubes respectively, and the hemolysis test was conducted using the same method as applied to the negative control group.
In the positive control group, 0.1% of Triton X-100 (obtained from Sigma Aldrich) was employed aid the hemolysis test was performed according to the steps prescribed above.
In this test, erythrocyte will be precipitated after centrifigation and supernate appear red in the circumstance hemolysis has occurred.

[2] = tested on: Escherichia coli JM103; type: cell-based
Experimental: The anti-microbial effect of the Magainin(Leu21, Ser23, Arg24) was conducted according to the following procedures, with the comparison of that of the naturally occurring Magainin.
The bacterial strain of Escherichia coli JM103 and staphylococcus aureus were employed.
The bacteria were cultivated at 37° centigrade, and diluted to 1×10^6 bacteria/ml. 20 mM of the sterilized Tris-HCl buffer (pH6.5) was added. Then the Magainin derivative and the naturally occurring Magainin II with various concentrations were added respectively, and incubated at 37° centigrade for different time, 50 μl of the cultures was taken and spread on an agar plate, and incubated at 37° centigrade overnight. The remaining bacteria colonies were accounted for, and the percent of the killed bacteria was calculated.
The ant-microbial effects of Magainin (Leu21, Ser23, Arg24) were tested with comparison with that of the naturally occurring Magainin II. […] The anti-microbial effect of Magainin (Leu21, Ser23, Arg24) on Staphylococcus aureus can be seen from table 4, and the result of time-kill study of Magainin (Leu21, Ser23, Arg24) was shown in FIG. 1.

[3] = tested on: mice of Kun-ming species; experiment: Acute toxicity test; type: in vivo; conditions: one week observation; for Livability: mice
Experimental: Six mice of Kun-ming species were divided into three groups randomly. Mice in the first group were intraperitoneally injected with 100 μg Magainin (Leu21, Ser23, Arg24) which is prepared by the method described in example 1, Mice in the second group were injected with 200 μg Magainin (Leu21, Ser23, Arg24), while those in the third group were injected with 1000 μg Magainin (Leu21, Ser23, Arg24). The toxicity of Magainin (Leu21, Ser23, Arg24) was determined by observing the influence of injection to the survival of the mice.

Substance	Hemolysis % ([1]; 0.1%, positive control) [%]	Bacteria killed % ([2]; 10 μg/ml, 3 hr) [%]	Bacteria killed % ([2]; 10 μg/ml, 4 hr) [%]	Bacteria killed % ([2]; 20 μg/ml, 3 hr) [%]	Bacteria killed % ([2]; 20 μg/ml, 4 hr) [%]	Livability ([3]; 100 μg intraperitoneal injection) [%]	Livability ([3]; 200 μg intraperitoneal injection) [%]	Livability ([3]; 1000 μg intraperitoneal injection) [%]	survival of the mice (in words) ([3]; 100, 200 and 1000 μg intraperitoneal)	Hemolysis % ([1]; 100 μg/ml, 30 minutes room temperature) [%]	Hemolysis % ([1]; 500 μg/ml, 30 minutes room temperature) [%]	Hemolysis % ([1]; 1000 μg/ml, 30 minutes room temperature) [%]
Triton X-100 [Tritonx-100]	100											
GIGKFLHSAKKFGKAFVGEILNSR [Magainin (Leu21, Ser23, Arg24)]		71.3	44.2	97.8	99.1	100	100	100	all survived			
GIGKFLHSAKKFGKAFVGEIMNS [Naturally occurring Magainin, Magainin II]		75.4	84.9	97.5	99.2					0	0	1.9
